# Measurements: US20160128980A1, “METHODS OF TREATING CKD USING PREDICTORS OF FLUID RETENTION” (AbbVie Inc., priority 2014, published 2016)
# Where two headings read alike, the source gives them in different places.
# Assays:
# [1] = 1-10 mg/day; cited from earlier work
# [2] = test system: subjects with type 1 diabetes and proteinuria not receiving RAS inhibitors; test: Study M96-499, Phase 2 cross-over study of atrasentan; assay type: in vivo, human
# Source text: The most commonly experienced treatment-emergent adverse events in the atrasentan group were peripheral edema (64%), pulmonary edema (18%), rhinitis (36%) and headache (18%), whereas in the placebo group there was no peripheral edema, but there were reports of rhinitis (11%) and headache (56%).
# [3] = test system: patients with type 2 diabetic nephropathy; test: Two Phase 2b 12 week placebo-controlled studies of atrasentan in residual albuminuria; assay type: in vivo, human; details: for Linear regression coefficient, hemoglobin response: hemoglobin change after two weeks; for Linear regression coefficient, weight response: weight change after two weeks
# Description: Two Phase 2b, multicenter, prospective, randomized, double-blinded, placebo-controlled, 12 week studies were conducted to evaluate the efficacy and safety of atrasentan compared to placebo in reducing residual albuminuria. Atrasentan was studied at doses of 0.75 mg QD and 1.25 mg QD. The study methodologies were the identical, but for the location. (NCT01356849 in U.S., Canada, and Taiwan; NCT10424319 in Japan). Additional clinical details can be found in Kohan, D E, et al., “Predictors of Atrasentan-Associated Fluid Retention and Change in Albuminuria in Patients with Diabetic Nephropathy,” Clin J Am Soc Nephrol, September 2015, 10:1568-1574, which is hereby incorporated by reference in its entirety. Observations in body weight changes and hemoglobin changes may be used as surrogate markers for changes in fluid retention. Demographic parameters were similar between the placebo and atrasentan 0.75 and 1.25 mg/d arms (Table 1). The following abbreviations are used within the table: BNP=B-type natriuretic peptide; DBP=diastolic blood pressure; eGFR=estimated glomerular filtration rate; HbA1c=glycated hemoglobin; RAS=renin-angiotensin system; SBP=systolic blood pressure; UACR=urinary albumin to creatinine ratio. Table 1 is reproduced in part from de Zeeuw D, et al., The endothelin antagonist atrasentan lowers residual albuminuria in patients with type 2 diabetic nephropathy. J Am Soc Nephrol 25: 1083-1093, 2014, which is hereby incorporated by reference in its entirety. Values within Table 1 are mean±standard deviation unless stated otherwise. The abbreviations used in Table 3 include BP=blood pressure; eGFR=estimated glomerular filtration rate; HbA1c=glycated hemoglobin; HOMA=homeostatic model assessment. The following covariates were included in the initial backward selection model: treatment assignment, age, gender, body weight, Hb, eGFR, albuminuria, systolic blood pressure (BP), eGFR, log transformed homeostatic metabolic assessment (HOMA) product, log-transformed B-type natriuretic peptide (BNP), thiazide and loop-diuretic use. Systolic blood pressure and atrasentan dose were not included in the final logistic regression models for body weight and hemoglobin, respectively.
# [4] = test system: subjects with type 2 diabetes and albuminuria on stable doses of RAS inhibitors; test: Study M10-815, Phase 2a placebo controlled study of atrasentan; assay type: in vivo, human; details: for reduction in the mean UACR from baseline: placebo 11%; for subjects with mild to moderate peripheral edema: placebo 9%
# Description: In a Phase 2a double-blind, randomized, placebo controlled study (referred to herein as M10-815), subjects with type 2 diabetes and albuminuria who were on stable doses of RAS inhibitors were administered atrasentan HCl at 0.25, 0.75 or 1.75 mg QD for 8 weeks.
# [5] = test system: congestive heart failure (CHF); details: within the first 4-8 weeks; thought to be a consequence of fluid retention; cited from earlier work
# [6] = cited from earlier work
# [7] = test system: participants with type 2 diabetes and overt diabetic nephropathy; details: cited from earlier work; for median decrease of UACR: median follow-up 4 months, placebo 9.7%; for discontinuation of trial medications due to adverse events: placebo 1.5%; for deaths: placebo 12
# [8] = test system: CHF; details: at higher doses; cited from earlier work
# [9] = test system: individuals with a systolic blood pressure above 140 mmHg receiving at least three blood-pressure-lowering drugs; details: cited from earlier work
# [10] = test system: patients with acute CHF; details: intravenous, doses greater than 1 mg/hr; cited from earlier work
# [11] = 0.75 mg/day vs. placebo, after two weeks
# [12] = 0.75 mg/day, Recovery (30 days)
# [13] = 1.25 mg/day vs. placebo, after two weeks
# [14] = 1.25 mg/day, Recovery (30 days)
# [15] = after 14 weeks, 50, 100 or 300 mg once daily, non-dose-dependent
smiles,measurement,setting,value
COC(c1ccccc1)(c1ccccc1)[C@H](Oc1nc(C)cc(C)n1)C(=O)O [Ambrisentan],edema incidence,[1],25%
"CCCCN(CCCC)C(=O)CN1C[C@H](c2ccc3c(c2)OCO3)[C@@H](C(=O)O)[C@@H]1c1ccc(OC)cc1 [Atrasentan, (2R,3R,4S)-4-(1,3-benzodioxol-5-yl)-1-[2-(dibutylamino)-2-oxoethyl]-2-(4-methoxyphenyl)pyrrolidine-3-carboxylic acid]",mean arterial blood pressure (BP),[2]; 5 mg QD,reduced
same,"pulmonary edema, treatment-emergent adverse event",[2]; 5 mg QD,18%
same,"peripheral edema, treatment-emergent adverse event","[2]; 5 mg QD, none in placebo",64%
same,"rhinitis, treatment-emergent adverse event","[2]; 5 mg QD, placebo 11%",36%
same,"headache, treatment-emergent adverse event","[2]; 5 mg QD, placebo 56%",18%
same,reduction in urinary albumin excretion,[2]; 5 mg daily (QD),65%
same,Logistic regression association with ≧1.3 g/dl fall in Hb,[3]; [11],no significant association
same,"Logistic regression odds ratio (95% CI), ≧2 kg weight gain",[3]; [11],3.0 (1.0-8.5)
same,"Linear regression coefficient, hemoglobin response",[3]; 0.75 mg/day vs. placebo,−0.7
same,"Linear regression coefficient, weight response",[3]; 0.75 mg/day vs. placebo,0.8
same,"BNP, median","[3]; 0.75 mg/day, Baseline",33.0 pg/mL
same,"Hemoglobin, Mean (SD)","[3]; 0.75 mg/day, Baseline",12.9 (1.5) g/dL
same,"UACR, median","[3]; 0.75 mg/day, Baseline",878 mg/g
same,"Weight, Mean (SD)","[3]; 0.75 mg/day, Baseline",87.1 (22.1) kg
same,"Hemoglobin, Mean (SD)",[3]; [12],12.4 (1.5) g/dL
same,"UACR, median",[3]; [12],1051 mg/g
same,"Weight, Mean (SD)",[3]; [12],85 (23) kg
same,"Hemoglobin, Mean (SD)","[3]; 0.75 mg/day, Week 2",12.0 (1.5) g/dL
same,"UACR, median","[3]; 0.75 mg/day, Week 2",573 mg/g
same,"Weight, Mean (SD)","[3]; 0.75 mg/day, Week 2",88.0 (22.2) kg
same,"UACR, median","[3]; 0.75 mg/day, Week 6",636 mg/g
same,"Weight, Mean (SD)","[3]; 0.75 mg/day, Week 6",87.3 (21.8) kg
same,"BNP, median","[3]; 0.75 mg/day, Week 12",33.1 pg/mL
same,"Hemoglobin, Mean (SD)","[3]; 0.75 mg/day, Week 12",11.8 (1.6) g/dL
same,"UACR, median","[3]; 0.75 mg/day, Week 12",521 mg/g
same,"Weight, Mean (SD)","[3]; 0.75 mg/day, Week 12",87.3 (22.3) kg
same,"Logistic regression odds ratio (95% CI), ≧1.3 g/dL hemoglobin fall",[3]; [13],5.6 (2.5-12.7)
same,"Logistic regression odds ratio (95% CI), ≧2 kg weight gain",[3]; [13],6.6 (2.3-18.6)
same,"Linear regression coefficient, hemoglobin response",[3]; 1.25 mg/day vs. placebo,−1.0
same,"Linear regression coefficient, weight response",[3]; 1.25 mg/day vs. placebo,1.3
same,"BNP, median","[3]; 1.25 mg/day, Baseline",33.5 pg/mL
same,"Hemoglobin, Mean (SD)","[3]; 1.25 mg/day, Baseline",12.9 (1.8) g/dL
same,"UACR, median","[3]; 1.25 mg/day, Baseline",826 mg/g
same,"Weight, Mean (SD)","[3]; 1.25 mg/day, Baseline",88.3 (18.4) kg
same,"Hemoglobin, Mean (SD)",[3]; [14],12.5 (1.9) g/dL
same,"UACR, median",[3]; [14],727 mg/g
same,"Weight, Mean (SD)",[3]; [14],88 (19) kg
same,"Hemoglobin, Mean (SD)","[3]; 1.25 mg/day, Week 2",11.8 (1.8) g/dL
same,"UACR, median","[3]; 1.25 mg/day, Week 2",515 mg/g
same,"Weight, Mean (SD)","[3]; 1.25 mg/day, Week 2",89.4 (18.7) kg
same,"UACR, median","[3]; 1.25 mg/day, Week 6",461 mg/g
same,"Weight, Mean (SD)","[3]; 1.25 mg/day, Week 6",89.6 (19.0) kg
same,"BNP, median","[3]; 1.25 mg/day, Week 12",37.0 pg/mL
same,"Hemoglobin, Mean (SD)","[3]; 1.25 mg/day, Week 12",11.8 (1.8) g/dL
same,"UACR, median","[3]; 1.25 mg/day, Week 12",470 mg/g
same,"Weight, Mean (SD)","[3]; 1.25 mg/day, Week 12",89.0 (19.2) kg
same,body weight increase,"[3]; after 2 weeks of treatment, placebo decreased approximately 1 kg",approximately 1 kg
same,hemoglobin (Hb) decrease,"[3]; both atrasentan groups after 2 weeks, persisted throughout treatment",approximately 1 g/dl
same,Hb after treatment discontinuation,[3]; by 30 days after treatment discontinuation,normalized
same,change in B-natriuretic peptide (BNP),[3]; patients who received atrasentan,no significant change
same,reduction in the mean UACR from baseline,"[4]; 0.25 mg QD for 8 weeks, non-significant, P=0.291",21%
same,subjects with mild to moderate peripheral edema,[4]; 0.25 mg QD,14%
same,reduction in the mean UACR from baseline,"[4]; 0.75 mg QD for 8 weeks, 1-sided P=0.023",42%
same,subjects with mild to moderate peripheral edema,[4]; 0.75 mg QD,18%
same,reduction in the mean UACR from baseline,"[4]; 1.75 mg QD for 8 weeks, 1-sided P=0.073",35%
same,subjects with mild to moderate peripheral edema,[4]; 1.75 mg QD,46%
COc1ccccc1Oc1c(NS(=O)(=O)c2ccc(C(C)(C)C)cc2)nc(-c2ncccn2)nc1OCCO [Bosentan],worsening of congestive heart failure,[5],associated with early worsening of congestive heart failure (CHF)
Cc1cc2c(cc1CC(=O)c1sccc1S(=O)(=O)Nc1onc(C)c1Cl)OCO2 [Sitaxsentan],edema,[6]; higher doses,significantly causes edema
same,edema,[6]; lower doses (100 or 300 mg daily),less tendency to cause edema
COc1ccccc1Oc1c(NS(=O)(=O)c2ccc(C)cn2)nc(-c2ccncc2)nc1OC [avosentan],median decrease of UACR,[7]; 25 mg,44%
same,discontinuation of trial medications due to adverse events,[7]; 25 mg,19.69%
same,deaths,[7]; 25 mg,21
same,median decrease of UACR,[7]; 50 mg,49%
same,discontinuation of trial medications due to adverse events,[7]; 50 mg,18.2%
same,deaths,[7]; 50 mg,17
COc1cc(OC)nc(O[C@H](C(=O)O)C(OC)(c2ccccc2)c2ccccc2)n1 [darusentan],worsening of CHF,[8],tended to worsen CHF
same,reduction in diastolic clinic seated blood pressure compared with placebo,[9]; [15],~5 mmHg
same,reduction in systolic clinic seated blood pressure compared with placebo,[9]; [15],about 10 mmHg
same,patients discontinuing because of fluid retention or peripheral edema,[9]; combined darusentan treatment groups,2%
same,patients with edema and/or fluid retention reported,"[9]; darusentan groups combined, placebo 14%",27%
same,patients with cardiac-related serious adverse events,[9]; patients taking darusentan,five
COc1ccccc1Oc1c(NS(=O)(=O)c2ccc(C(C)C)cn2)nc(-c2ccnc(-c3nnn[nH]3)c2)nc1OCCO [tezosentan],urine output,[10],reduced urine output
